No end group written: not given here.

The results in this text go back to patent US12428455B2, “Dominant negative CEBPB and CEBPD proteins and methods of use for decreasing viability of neoplastic cells” (The Trustees of Columbia University in the City of New York, priority 2018, dated 2025).

In series [1] the test system is ASNS (Asparagine synthetase). As to the kind of experiment: qPCR for ASNS. Particulars: 20 μM, 3 days; T98G, MDA-MB-231, MCF7, A375 and HCT116 cells. It counts as cell-based. The procedure: T98G, MDA-MB-231, MCF7, A375, and HCT116 cells were treated with or without 20 μM CP-dn-CEBPB or CP-dn-CEBPD for 3 days and then assessed by qPCR for relative levels of ASNS (Asparagine synthetase) (FIG. 33A, T98G; FIG. 33B, MDA-MB-231; FIG. 33C, MCF7; FIG. 33D, A375; FIG. 33E, HCT116).
In general terms: Quantitative PCR measures a nucleic acid by following its amplification.

A short description of series [2]: Solubility of peptide stock after dilution. Conditions: 20 mM of each of arginine and glutamate added to peptide stock buffer. It counts as physicochemical. Here is the method:
In some implementations, the mixture of arg/glu may be added at a molarity of, or of about 5 mM, 10 mM, 15 mM, 20 mM, 25 mM, or 30 mM.

The subject of series [3] is HCT116 cells. The series can be described thus: Combination with chloroquine, cell number, HCT116. It counts as cell-based. Conditions: 5 μM or 10 μM chloroquine and 3 μM or 10 μM peptide, 6 days. The procedure: Replicate cultures of T98G, MDA-MB 231, and HCT116 cells were treated with 5 μM or 10 μM chloroquine and 3 μM or 10 μM CP-dn-CEBPB and CP-dn-CEBPD peptides, maintained for 6 days, and then assessed for cell number. The bar graphs of FIGS. 29A (T98G, CP-dn-CEBPB), 29C (T98G, CP-dn-CEBPBD, 29E (MDA-MB-231, CP-dn-CEBPBD), 29G (MDA-MB-231, CP-dn-CEBPD), 29I (HCT116, CP-dn-CEBPBB), and 26K (HCT116, CP-dn-CEBPBD) show relative cell numbers for each condition as compared to untreated controls. The line graphs of FIGS. 26B (T98G, CP-dn-CEBPB), 26D (T98G, CP-dn-CEBPBD), 26F (MDA-MB-231, CP-dn-CEBPB), 26H (MDA-MB-231, CP-dn-CEBPD), 26J (HCT116, CP-dn-CEBPB), and 26L (HCT116 CP-dn-CEBPBD) show the response as normalized in each case so that 100 represents the relative number of surviving cells that received the indicated level of chloroquine, but no peptide treatment. The results ranged from near-additive (HCT116 cells, CI=0.92±0.08 for CP-dn-CEBPB and 0.87±0.07 for CP-dn-CEBPD) to apparent synergy (T98G, CI=0.56±0.06 for CP-dn-CEBPB and 0.75±0.03 for CP-dn-CEBPD; MDA-MB-261, CI=0.59±0.11 for CP-dn-CEBPB and 0.47±0.05 for CP-dn-CEBPD).

Series [4] has as its system BCL2, MCL1 and survivin proteins. As to the kind of experiment: Western immunoblotting for pro-survival proteins. It counts as cell-based. Particulars: 20 μM, 3 days; T98G, HCT116, MDA-MB-231 and MCF7 cell lines. Here is the method: T98G, HCT116, MDA-MB-231, and MCF7 cell lines were exposed to 0 or 20 μM CP-dn-CEBPB or CP-dn-CEBPD for 3 days and then assessed by Western immunoblotting for levels of BCL2, MCL1 and survivin proteins with actin as loading control (FIG. 34A). Remaining panels show amounts of surviving (FIG. 34B), BCL2 (FIG. 34C) and MCL1 (FIG. 34D) were quantified relative to actin in multiple experiments.
A general note: In western blotting, separated proteins are transferred to a membrane and probed.

The subject of series [5] is HIEC-6 non-cancer human intestinal epithelial cells. As to the kind of experiment: Morphology after peptide treatment, HIEC-6. It counts as cell-based. Particulars: 5 to 6 days, 20 μM or 50; stock without BSA. Here is the method:
Stock solutions of the peptides were prepared in buffer without added bovine serum albumin (BSA).

For series [6], the system named is MDA-MB 231, HCT116, and A375 cells. The series can be described thus: Peptide treatment after doxorubicin pre-treatment, cell number. It counts as cell-based. Particulars: for sensitivity of cells to peptide with or without doxorubicin pre-treatment: 100 nM doxorubicin 24 hours, then 1, 3, 10 or 20 μM peptide, 6 days; for effect on reversibly non-growing or slow-growing cancer cells: after pre-treatment with 100 nM doxorubicin for 24 hours. Here is the method: Replicate cultures of MDA-MB 231, HCT116, and A375 cells were pretreated with 100 nM doxorubicin for 24 hours, and then treated with 1 μM, 3 μM, 10 μM, or 20 μM CP-dn-CEBPB and CP-dn-CEBPD peptides, maintained for 6 days, and then assessed for cell number. The bar graphs of FIGS. 31A (MDA-MB 231, CP-dn-CEBPB), 31C (MDA-MB 231, CP-dn-CEBPBD, 31E (HCT116, CP-dn-CEBPBD), 31G (HCT116, CP-dn-CEBPD), 31I (A375, CP-dn-CEBPBB), and 31K (A375, CP-dn-CEBPBD) show relative cell numbers for each condition as compared to untreated controls. The line graphs of FIGS. 31B (MDA-MB 231, CP-dn-CEBPB), 31D (MDA-MB 231, CP-dn-CEBPBD), 31F (HCT116, CP-dn-CEBPB), 31H (HCT116, CP-dn-CEBPD), 31J (A375, CP-dn-CEBPB), and 31L (A375, CP-dn-CEBPBD) show the response as normalized in each case so that 100 represents the relative number of surviving cells that received the indicated level of doxorubicin, but no peptide treatment.

Turning to “RQIKIWFQNRRMKWKKLETQHKVLELTAENERLQKKVEQLSRELSTLRNLFKQL [CP-DN-CEBPB]”, the “relative levels of ASNS” value in series [1] is listed as “suppress expression of ASNS”. Moreover, the “solubility after dilution to the concentration applied to cultured LN229 cells” value in series [2] is on record as “maintained solubility”. The CI with chloroquine in series [3] is 0.92±0.08. Besides, the “levels of BCL2, MCL1 and survivin proteins relative to actin” value in series [4] is “surpress expression of pro-survival proteins”. Further, the “morphology of HIEC-6 cells” value in series [5] is reported as “did not affect the morphology”. Moreover, in series [6], the “sensitivity of cells to peptide with or without doxorubicin pre-treatment” value is listed as “retain similar sensitivity” and the “effect on reversibly non-growing or slow-growing cancer cells” value is listed as “effective to treat reversibly non-growing or slow-growing cancer cells”.

With “RQIKIWFQNRRMKWKKLVELSAENEKLHQRVEQLTRDLAGLRQFFK [CP-DN-CEBPD]”, the “relative levels of ASNS” value in series [1] is recorded as “suppress expression of ASNS”. Further, in series [2], the “solubility after dilution to the concentration applied to cultured LN229 cells” value was “maintained solubility”. Besides, the CI with chloroquine in series [3] is 0.87±0.07. Further, the “levels of BCL2, MCL1 and survivin proteins relative to actin” value in series [4] was “surpress expression of pro-survival proteins”. Further, the “morphology of HIEC-6 cells” value in series [5] was “did not affect the morphology”. Moreover, in series [6], the “sensitivity of cells to peptide with or without doxorubicin pre-treatment” value is on record as “retain similar sensitivity” and the “effect on reversibly non-growing or slow-growing cancer cells” value is “effective to treat reversibly non-growing or slow-growing cancer cells”.
